IC50 and EC50 data for 18 compounds are collected here from patent publication US20140249135A1, “PIM KINASE INHIBITORS AND METHODS OF THEIR USE” (NOVARTIS AG, priority 2007, published 2014).

One experiment addresses Pim1 kinase (Homo sapiens, UniProt P11309). The experiment in a line: Pim1 ATP depletion assay.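 Further: Luciferase-luciferin luminescence readout of residual ATP after PIM1 transfers phosphate to a peptide substrate, 40 µM ATP added, reaction run to roughly half ATP consumption.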 The experiment is classed as biochemical. As to conditions: Pim1 ATP depletion assay; read-out: IC50 (μM) PIM1.
For a further experiment, the target named is Pim2 kinase (Homo sapiens, UniProt Q9P1W9). Nature of the experiment: Pim2 ATP depletion assay.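 Further: Luciferase-based luminescent readout of ATP remaining after PIM2 phosphorylates a BAD peptide, final 5 nM enzyme, 4 µM ATP, 10 µM peptide, 2.5% DMSO, run to roughly half ATP consumption.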 The format is biochemical. The note with it: read-out: IC50 (μM) PIM2.
For a further experiment, the system named is HEL 92.1.7 cells. Nature of the experiment: Cell proliferation assay (CellTiter-Glo), HEL 92.1.7. The format is cell-based. The note with it: Homo sapiens, read-out: EC50 (μM) HEL 92.1.7. In short, it runs like this:
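Cells in RPMI1640 with 10% FBS were seeded at 1000 cells/well and exposed to compound dilutions from DMSO stocks for 3 days at 37 °C. Viability was read by CellTiter-Glo luminescence. EC50 was derived from percent inhibition relative to DMSO-only and control-compound wells.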
Background: Cellular ATP, detected with luciferase, serves as a proxy for viable cell number.

The next experiment addresses Pim3 kinase (Homo sapiens, UniProt Q86V86). Nature of the experiment: Pim3 ATP depletion assay. The experiment is classed as biochemical. The note with it: read-out: IC50 (μM) PIM3.
The target of experiment [1] is T1, human full length PKCE enzyme (Homo sapiens, UniProt Q02156).
T1 construct: human full length PKCE enzyme purchased from InVitrogen; purchased InVitrogen
T1 sequence (Q02156 1-737): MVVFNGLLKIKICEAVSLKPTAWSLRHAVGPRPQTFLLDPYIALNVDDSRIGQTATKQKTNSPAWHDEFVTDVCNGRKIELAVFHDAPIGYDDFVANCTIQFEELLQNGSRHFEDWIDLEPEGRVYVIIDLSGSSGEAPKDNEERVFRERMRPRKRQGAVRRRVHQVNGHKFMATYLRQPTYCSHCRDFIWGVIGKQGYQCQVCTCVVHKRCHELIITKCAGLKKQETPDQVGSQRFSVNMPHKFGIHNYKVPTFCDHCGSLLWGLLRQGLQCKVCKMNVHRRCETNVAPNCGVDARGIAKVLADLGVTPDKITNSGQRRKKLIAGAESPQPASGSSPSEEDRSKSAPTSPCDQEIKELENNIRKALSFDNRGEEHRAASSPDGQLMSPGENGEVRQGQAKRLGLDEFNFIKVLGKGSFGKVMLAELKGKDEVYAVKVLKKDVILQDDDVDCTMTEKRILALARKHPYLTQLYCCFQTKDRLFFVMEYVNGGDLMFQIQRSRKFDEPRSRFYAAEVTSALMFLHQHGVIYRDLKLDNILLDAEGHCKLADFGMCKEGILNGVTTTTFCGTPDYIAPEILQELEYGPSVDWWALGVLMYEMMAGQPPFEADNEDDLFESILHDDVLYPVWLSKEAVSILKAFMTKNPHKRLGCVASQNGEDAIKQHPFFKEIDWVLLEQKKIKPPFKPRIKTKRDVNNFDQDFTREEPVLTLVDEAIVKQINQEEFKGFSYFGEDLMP
The experiment in a line: In vitro PKCE assay. The experiment is classed as biochemical. As to conditions: 10 nM enzyme, 40 uM peptide substrate, 20 uM ATP, KinaseGlo Plus readout; read-out: PKCε IC50. Background: Kinase-Glo measures the ATP left after a reaction by luminescence.

The structures appear in SMILES notation. A value given as a limit tells only on which side of the number the result lay.

One may read the IC50 as the point on the concentration scale where inhibition reaches its midpoint. As usually defined, the EC50 is the midpoint of the concentration-response curve.

Chain of Pim2 kinase (Q9P1W9 whole entry): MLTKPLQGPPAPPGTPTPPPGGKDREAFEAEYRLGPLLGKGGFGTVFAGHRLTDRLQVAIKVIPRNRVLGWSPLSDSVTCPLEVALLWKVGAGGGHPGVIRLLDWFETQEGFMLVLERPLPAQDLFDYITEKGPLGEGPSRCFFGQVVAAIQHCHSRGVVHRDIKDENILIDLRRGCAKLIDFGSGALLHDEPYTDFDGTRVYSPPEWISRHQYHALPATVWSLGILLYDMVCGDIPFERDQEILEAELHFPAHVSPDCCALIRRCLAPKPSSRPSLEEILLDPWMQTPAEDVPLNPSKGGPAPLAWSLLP
Chain of Pim1 kinase (P11309 whole entry): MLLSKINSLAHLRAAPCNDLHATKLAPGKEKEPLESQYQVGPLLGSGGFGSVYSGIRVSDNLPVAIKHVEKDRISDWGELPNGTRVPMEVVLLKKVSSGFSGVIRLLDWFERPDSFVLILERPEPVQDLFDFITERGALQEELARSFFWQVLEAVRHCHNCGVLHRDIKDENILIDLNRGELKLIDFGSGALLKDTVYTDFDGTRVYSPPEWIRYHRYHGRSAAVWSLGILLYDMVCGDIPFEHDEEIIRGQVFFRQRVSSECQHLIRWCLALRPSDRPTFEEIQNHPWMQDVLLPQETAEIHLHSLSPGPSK

With `Nc1ncc(Br)nc1C(=O)Nc1[nH]c(=O)ncc1N1CCCC(F)C1` (stereo not drawn) [Example 155, 3-amino-6-bromo-N-[5-(3-fluoropiperidin-1-yl)-2-oxo-2,3-dihydropyrimidin-4-yl]pyrazine-2-carboxamide], the IC50 on Pim1 kinase was under 1 µM; on Pim2 kinase it was under 1 µM; at Pim3 kinase, under 1 µM; in experiment [1], 1000 to 10000 nM. Besides, the EC50 with HEL 92.1.7 cells was in the range of 5 to 10 µM.
Turning to `Nc1ncc(Br)nc1C(=O)Nc1[nH]c(=O)ncc1N1CCC(F)(F)CC1` [Example 157, 3-amino-6-bromo-N-[5-(4,4-difluoropiperidin-1-yl)-2-oxo-2,3-dihydropyrimidin-4-yl]-pyrazine-2-carboxamide], the IC50 on Pim1 kinase was under 1 µM; on Pim2 kinase, under 1 µM; on Pim3 kinase, under 1 µM; in experiment [1] it was over 25000 nM. Besides, in the experiment on HEL 92.1.7 cells, the EC50 is over 10 µM.
With `Nc1nc(N)c(C(=O)Nc2[nH]c(=O)ncc2N2CCCC(F)C2)nc1Cl` (stereo not drawn) [Example 160, 3,5-diamino-6-chloro-N-[5-(3-fluoropiperidin-1-yl)-2-oxo-2,3-dihydropyrimidin-4-yl]pyrazine-2-carboxamide], the IC50 was under 1 µM at Pim1 kinase, under 1 µM at Pim2 kinase, under 1 µM at Pim3 kinase and over 25000 nM in experiment [1]. The EC50 in the experiment with HEL 92.1.7 cells is over 10 µM.
`NCC(=O)N1CCN(c2ccncc2NC(=O)c2nc(Br)cnc2N)CC1` [Example 179, 3-amino-N-{4-[4-(aminoacetyl)-piperazin-1-yl]pyridin-3-yl}-6-bromopyrazine-2-carboxamide]: the IC50 on Pim1 kinase was under 1 µM; at Pim2 kinase, under 1 µM; on Pim3 kinase, under 1 µM; in experiment [1], under 1000 nM. Further, the EC50 in the experiment on HEL 92.1.7 cells is 1 to 5 µM.
On to `NCC1CCCN(c2ccncc2NC(=O)c2nc(Br)cnc2N)C1` (stereo not drawn) [Example 180, 3-amino-N-{4-[3-(amino-methyl)piperidin-1-yl]pyridin-3-yl}-6-bromopyrazine-2-carboxamide], for which the IC50 at Pim1 kinase was under 1 µM; at Pim2 kinase, under 1 µM; on Pim3 kinase it was under 1 µM; in experiment [1], under 1000 nM. The EC50 in the experiment on HEL 92.1.7 cells is under 1 µM.
As to `Nc1ncc(Br)nc1C(=O)Nc1[nH]c(=O)ncc1N1CCCC(N)C1` (stereo not drawn) [Example 239, 3-amino-N-[5-(3-aminopiperidin-1-yl)-2-oxo-2,3-dihydro-pyrimidin-4-yl]-6-bromo-pyrazine-2-carboxamide], the IC50 is under 1 µM on Pim1 kinase, under 1 µM at Pim2 kinase, under 1 µM at Pim3 kinase and under 1000 nM in experiment [1]. In the experiment on HEL 92.1.7 cells, the EC50 was over 10 µM.
Regarding `Nc1ncc(-c2ccccc2Cl)nc1C(=O)Nc1cnccc1N1CCCC(N)C1` (stereo not drawn) [Example 346, 3-amino-6-(2-chloro-phenyl)-pyrazine-2-carboxylic acid (3-amino-3,4,5,6-tetrahydro-2H-[1,4′]bipyridinyl-3′-yl)-amide], the IC50 on Pim1 kinase was under 1 µM; at Pim2 kinase, under 1 µM; at Pim3 kinase, under 1 µM; in experiment [1] it was under 1000 nM. The EC50 in the experiment on HEL 92.1.7 cells is under 1 µM.
`Nc1ncc(-c2ccccc2OC(F)(F)F)nc1C(=O)Nc1cnccc1N1CCCC(N)C1` (stereo not drawn) [Example 347, 3-amino-6-(2-trifluoro-methoxy-phenyl)-pyrazine-2-carboxylic acid (3-amino-3,4,5,6-tetrahydro-2H-[1,4′]bi-pyridinyl-3′-yl)-amide]: the IC50 is under 1 µM on Pim1 kinase, under 1 µM at Pim2 kinase, under 1 µM on Pim3 kinase and under 1000 nM in experiment [1]. For the same compound, the EC50 in the experiment with HEL 92.1.7 cells is under 1 µM.
For the compound `COc1ccccc1-c1cnc(N)c(C(=O)Nc2cnccc2N2CCCC(N)C2)n1` (stereo not drawn) [Example 349, 3-amino-6-(2-methoxy-phenyl)-pyrazine-2-carboxylic acid (3-amino-3,4,5,6-tetra-hydro-2H-[1,4′]bipyridinyl-3′-yl)-amide], the IC50 at Pim1 kinase is under 1 µM; on Pim2 kinase, under 1 µM; on Pim3 kinase, under 1 µM; in experiment [1], 1000 to 10000 nM. In addition, the EC50 in the experiment with HEL 92.1.7 cells is under 1 µM.
For the compound `Nc1ncc(-c2ccccc2F)nc1C(=O)Nc1cnccc1N1CCCC(N)C1` (stereo not drawn) [Example 350, 3-amino-6-(2-fluoro-phenyl)-pyrazine-2-carboxylic acid (3-amino-3,4,5,6-tetrahydro-2H-[1,4′]bipyridinyl-3′-yl)-amide], the IC50 was under 1 µM on Pim1 kinase, under 1 µM at Pim2 kinase, under 1 µM on Pim3 kinase and under 1000 nM in experiment [1]. Moreover, the EC50 in the experiment with HEL 92.1.7 cells was under 1 µM.
Regarding `Nc1ncc(-c2cccc(Cl)c2)nc1C(=O)Nc1cnccc1N1CCCC(N)C1` (stereo not drawn) [Example 352, 3-amino-6-(3-chloro-phenyl)-pyrazine-2-carboxylic acid (3-amino-3,4,5,6-tetrahydro-2H-[1,4′]bipyridinyl-3′-yl)-amide], the IC50 on Pim1 kinase is under 1 µM; at Pim2 kinase, under 1 µM; at Pim3 kinase, under 1 µM; in experiment [1], under 1000 nM. The EC50 with HEL 92.1.7 cells was under 1 µM.
Regarding `Nc1ncc(-c2ccc(Cl)cc2)nc1C(=O)Nc1cnccc1N1CCCC(N)C1` (stereo not drawn) [Example 353, 3-amino-6-(4-chloro-phenyl)-pyrazine-2-carboxylic acid (3-amino-3,4,5,6-tetrahydro-2H-[1,4′]bipyridinyl-3′-yl)-amide], the IC50 at Pim1 kinase is under 1 µM; on Pim2 kinase, under 1 µM; at Pim3 kinase, under 1 µM; in experiment [1], under 1000 nM. Also, the EC50 in the experiment on HEL 92.1.7 cells is under 1 µM.
For the compound `Nc1ncc(-c2cn[nH]c2)nc1C(=O)Nc1cnccc1N1CCCC(N)C1` (stereo not drawn) [Example 355, 3-amino-6-(1H-pyrazol-4-yl)-pyrazine-2-carboxylic acid (3-amino-3,4,5,6-tetrahydro-2H-[1,4′]bipyridinyl-3′-yl)-amide], the IC50 is under 1 µM at Pim1 kinase, under 1 µM on Pim2 kinase, under 1 µM on Pim3 kinase and 1000 to 10000 nM in experiment [1]. The EC50 with HEL 92.1.7 cells is over 10 µM.
`Nc1ncc(-c2cccnc2)nc1C(=O)Nc1cnccc1N1CCCC(N)C1` (stereo not drawn) [Example 356, 3-amino-6-pyridin-3-yl-pyrazine-2-carboxylic acid (3-amino-3,4,5,6-tetrahydro-2H-[1,4′]bipyridinyl-3′-yl)-amide]: the IC50 on Pim1 kinase is under 1 µM; at Pim2 kinase it was under 1 µM; on Pim3 kinase, under 1 µM; in experiment [1], 1000 to 10000 nM. The EC50 with HEL 92.1.7 cells was over 10 µM.
Regarding `Nc1ncc(-c2cncnc2)nc1C(=O)Nc1cnccc1N1CCCC(N)C1` (stereo not drawn) [Example 357, 3-amino-6-pyrimidin-5-yl-pyrazine-2-carboxylic acid (3-amino-3,4,5,6-tetrahydro-2H-[1,4′]bipyridinyl-3′-yl)-amide], the IC50 on Pim1 kinase was under 1 µM; at Pim2 kinase, under 1 µM; on Pim3 kinase, under 1 µM; in experiment [1] it was 1000 to 10000 nM. Also, the EC50 in the experiment on HEL 92.1.7 cells lay within 1 to 5 µM.
`Nc1ncc(-c2ccccc2F)nc1C(=O)Nc1[nH]c(=O)ncc1N1CCCC(N)C1` (stereo not drawn) [Example 401, 3-amino-6-(2-fluoro-phenyl)-pyrazine-2-carboxylic acid [5-(3-amino-piperidin-1-yl)-2-oxo-2,3-dihydro-pyrimidin-4-yl]-amide]: the IC50 on Pim1 kinase was under 1 µM; at Pim2 kinase, under 1 µM; at Pim3 kinase, under 1 µM; in experiment [1] it was under 1000 nM. Moreover, the EC50 with HEL 92.1.7 cells is 5 to 10 µM.
As to `Nc1ncc(-c2ccccc2Cl)nc1C(=O)Nc1[nH]c(=O)ncc1N1CCCC(N)C1` (stereo not drawn) [Example 402, 3-amino-6-(2-chloro-phenyl)-pyrazine-2-carboxylic acid [5-(3-amino-piperidin-1-yl)-2-oxo-2,3-dihydro-pyrimidin-4-yl]-amide], the IC50 is under 1 µM on Pim1 kinase, under 1 µM at Pim2 kinase, under 1 µM on Pim3 kinase and 1000 to 10000 nM in experiment [1]. In addition, the EC50 in the experiment with HEL 92.1.7 cells lay within 5 to 10 µM.
For `COc1ccc(F)cc1-c1ccc(N)c(C(=O)Nc2cnccc2N2CCC[C@H](N)C2)n1` [Example 427, 3-amino-6-(5-fluoro-2-methoxy-phenyl)-pyridine-2-carboxylic acid ((S)-3-amino-3,4,5,6-tetra-hydro-2H-[1,4′]bipyridinyl-3′-yl)-amide], the concentration for half-maximal inhibition (IC50) at Pim1 kinase is under 1 µM; at Pim2 kinase, under 1 µM; at Pim3 kinase, under 1 µM; in experiment [1], 10000 to 25000 nM. The EC50 in the experiment on HEL 92.1.7 cells is 1 to 5 µM.
